Experimental data taken from patent publication US10100064B2, “Purine inhibitors of human phosphatidylinositol 3-kinase delta” (Merck Sharp & Dohme Corp., priority 2014, dated 2018).

What was measured:
PI3Kdelta = target: T1, PI3Kdelta (Homo sapiens, UniProt O00329); test: HTRF PI3K biochemical assay, delta isoform; conditions: 0.3 nM enzyme, 100 uM ATP, 5 uM PIP2, form screened (Neutral or TFA salt) given per compound
T1 construct: purchased Upstate; Millipore 14-604
Text: (§1) HTRF PI3K Biochemical Assay to Measure Intrinsic Potency of Compound Inhibitors
(§2) The PI3-Kinase biochemical assays were developed to measure the intrinsic potency and compound dependent inhibition of the alpha, beta, delta, and gamma PI3K isoform enzymes. This assay was developed and further optimized from a kit produced by Upstate (Millipore catalog #33-047) and has been configured for HTS and SAR screening. Briefly, this procedure exploits the exquisite specificity and high affinity binding of […] phosphatidyl(3,4,5)triphosphate (PIP3) to the GRP1 pleckstrin homology (PH) domain to generate the signal. In the absence of PIP3, an HTRF (Homogeneous Time-Resolved Fluorescence energy transfer) complex is formed consisting of europium (Eu)-labeled anti-GST, GSTtagged GRP1-PH domain, biotin-PIP3 and streptavidin conjugated APC. The native PIP3 produced by PI3-Kinase activity disrupts in a competitive manner the biotin-PIP3 from the PH domain, resulting in the loss of energy transfer (HTRF complex) and a decrease in the signal. The format of this assay is the same for all 4 isoforms of PI3K; the differences lie in the concentration of enzyme used to achieve robust assay window. The alpha, beta, and delta assays are run at 0.5, 1, and 0.3 nM enzymes and the gamma assay is run at 5 nM enzyme. The ATP concentration is 100 uM in the alpha, beta, and delta assays and 50 uM ATP in the gamma assay. All reactions are run at 5 uM PIP2.
(§3) Compounds are serially diluted (3-fold in 100% DMSO) across a 384-well polypropylene source plated from column 3 to column 12 and column 13 to column 22, to yield 10 concentration dose response for each test compound. Columns 1, 2, 23 and 24 contain either only DMSO or pharmacological known control inhibitor. Once titrations are made, 2.5 nL of the compounds on 384 well plates are reformatted and transferred by acoustic dispense in quadruplicates to a 1536 assay plate (Greiner) to assay across all four PI3K isoform enzymes.
(§4) The PI3-Kinase biochemical assay was optimized using the HTRF kit provided by Upstate (Millipore). The assay kit contains six reagents: 1) 4× Reaction Buffer; 2) native PIP2 (substrate); 3) Stop (EDTA); 4) Detection Mix A (Streptavidin-APC); 5) Detection Mix B (Eu-labeled Anti-GST plus GST-tagged PH-domain); 6) Detection Mix C. In addition, the following items were obtained or purchased; PI3Kinase (alpha 14-602, beta 14-603, gamma 14-558 and delta 14-604 from Upstate; Millipore), dithiothreitol (Sigma, D-5545), Adenosine-5′ triphosphate (InVitrogen, Cat#AS001A), native PIP3 (PI(3,4,5)P3, diC8, H^+, CELLSIGNALS, INC. Cat #907) DMSO (Sigma, 472301).
(§5) PI3Kinase Reaction Buffer is prepared by dilution the stock 1:4 with de-ionized water. DTT, PIP2 and Biotin-PIP3 were added to 1536 assay plate at a final concentration of 5 mM, […] 25 nM on the day of use. Enzyme addition and compound pre-incubation are initiated by the addition of 1.25 ul of PI3K (at twice its final concentration) in the 1× reaction buffer to all wells using a BioRaptor. Plates are incubated at room temperature for 15 minutes. Reactions are initiated by addition of 1.25 ul of 2× substrate solution (PIP2 and ATP in 1× reaction buffer) using BioRaptor. Plates are incubated in humidified chamber at room temperature for one hour. Reactions are quenched by addition of 0.625 uL of stop solution to all wells using the BioRaptor. The quenched reactions are then processed to detect product formation by adding 0.625 uL of Detection Solution to all wells using the BioRaptor (Detection mix C, Detection Mix A, and Detection Mix B combined together in an 18:1:1 ratio prepared 2 hours prior to use). Following a one hour incubation in the dark, the HTRF signal is measured on the Envision plate reader set for 330 nm excitation and dual emission detection at […]. […]

PI3Kalpha = target: T2, PI3Kalpha (Homo sapiens, UniProt P42336); test: HTRF PI3K biochemical assay, alpha isoform (selectivity versus delta); conditions: relative ratio PI3K-alpha IC50 value / PI3K-delta IC50 value
T2 construct: purchased Upstate; Millipore 14-602
Text: as §1, §2, §3, §4, §5

T1 sequence (O00329 whole entry, canonical isoform): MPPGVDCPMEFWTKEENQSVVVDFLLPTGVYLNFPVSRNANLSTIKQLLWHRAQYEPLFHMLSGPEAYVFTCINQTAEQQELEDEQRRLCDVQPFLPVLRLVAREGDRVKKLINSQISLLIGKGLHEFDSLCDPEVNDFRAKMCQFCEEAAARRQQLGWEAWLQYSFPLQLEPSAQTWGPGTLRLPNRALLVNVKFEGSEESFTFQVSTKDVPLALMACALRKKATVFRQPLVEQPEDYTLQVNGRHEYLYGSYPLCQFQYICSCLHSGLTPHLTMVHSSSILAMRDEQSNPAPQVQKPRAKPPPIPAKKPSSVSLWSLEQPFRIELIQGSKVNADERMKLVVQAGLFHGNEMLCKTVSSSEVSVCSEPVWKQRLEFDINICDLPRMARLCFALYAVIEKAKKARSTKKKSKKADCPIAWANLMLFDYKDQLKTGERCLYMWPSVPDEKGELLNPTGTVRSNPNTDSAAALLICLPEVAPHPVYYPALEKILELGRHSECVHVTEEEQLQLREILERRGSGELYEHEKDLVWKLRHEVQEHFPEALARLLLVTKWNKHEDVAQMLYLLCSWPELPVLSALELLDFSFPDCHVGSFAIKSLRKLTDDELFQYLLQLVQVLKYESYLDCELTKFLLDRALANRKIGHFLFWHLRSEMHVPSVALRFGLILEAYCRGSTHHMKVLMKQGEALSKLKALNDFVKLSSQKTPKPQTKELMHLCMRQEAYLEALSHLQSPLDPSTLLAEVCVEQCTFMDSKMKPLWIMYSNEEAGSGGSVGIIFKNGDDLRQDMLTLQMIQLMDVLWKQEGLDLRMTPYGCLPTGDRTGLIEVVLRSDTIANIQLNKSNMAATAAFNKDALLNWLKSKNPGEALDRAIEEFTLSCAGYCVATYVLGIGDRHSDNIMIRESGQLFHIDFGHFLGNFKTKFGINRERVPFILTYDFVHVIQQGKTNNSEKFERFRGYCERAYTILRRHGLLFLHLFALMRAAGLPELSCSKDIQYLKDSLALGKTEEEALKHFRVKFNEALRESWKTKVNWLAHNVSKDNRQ
T1 sequence (P27986 whole entry partner, canonical isoform): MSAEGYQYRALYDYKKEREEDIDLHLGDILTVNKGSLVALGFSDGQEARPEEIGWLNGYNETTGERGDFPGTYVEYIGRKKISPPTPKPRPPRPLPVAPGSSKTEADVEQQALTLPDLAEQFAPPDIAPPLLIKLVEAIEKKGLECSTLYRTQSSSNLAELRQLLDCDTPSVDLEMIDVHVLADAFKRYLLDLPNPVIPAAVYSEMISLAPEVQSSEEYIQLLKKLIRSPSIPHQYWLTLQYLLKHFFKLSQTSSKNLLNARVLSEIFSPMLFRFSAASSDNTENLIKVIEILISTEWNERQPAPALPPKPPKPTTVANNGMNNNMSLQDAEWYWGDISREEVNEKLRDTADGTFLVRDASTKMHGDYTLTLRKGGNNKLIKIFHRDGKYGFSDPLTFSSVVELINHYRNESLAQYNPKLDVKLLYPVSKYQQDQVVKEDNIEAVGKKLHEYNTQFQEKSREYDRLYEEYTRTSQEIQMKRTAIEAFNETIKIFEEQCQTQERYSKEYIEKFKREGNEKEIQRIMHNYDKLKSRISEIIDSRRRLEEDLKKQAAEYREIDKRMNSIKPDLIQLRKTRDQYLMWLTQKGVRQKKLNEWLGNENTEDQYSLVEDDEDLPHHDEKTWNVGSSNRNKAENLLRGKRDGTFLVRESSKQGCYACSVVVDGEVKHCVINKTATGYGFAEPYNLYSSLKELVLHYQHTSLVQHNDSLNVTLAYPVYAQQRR
T2 sequence (P42336 whole entry, canonical isoform): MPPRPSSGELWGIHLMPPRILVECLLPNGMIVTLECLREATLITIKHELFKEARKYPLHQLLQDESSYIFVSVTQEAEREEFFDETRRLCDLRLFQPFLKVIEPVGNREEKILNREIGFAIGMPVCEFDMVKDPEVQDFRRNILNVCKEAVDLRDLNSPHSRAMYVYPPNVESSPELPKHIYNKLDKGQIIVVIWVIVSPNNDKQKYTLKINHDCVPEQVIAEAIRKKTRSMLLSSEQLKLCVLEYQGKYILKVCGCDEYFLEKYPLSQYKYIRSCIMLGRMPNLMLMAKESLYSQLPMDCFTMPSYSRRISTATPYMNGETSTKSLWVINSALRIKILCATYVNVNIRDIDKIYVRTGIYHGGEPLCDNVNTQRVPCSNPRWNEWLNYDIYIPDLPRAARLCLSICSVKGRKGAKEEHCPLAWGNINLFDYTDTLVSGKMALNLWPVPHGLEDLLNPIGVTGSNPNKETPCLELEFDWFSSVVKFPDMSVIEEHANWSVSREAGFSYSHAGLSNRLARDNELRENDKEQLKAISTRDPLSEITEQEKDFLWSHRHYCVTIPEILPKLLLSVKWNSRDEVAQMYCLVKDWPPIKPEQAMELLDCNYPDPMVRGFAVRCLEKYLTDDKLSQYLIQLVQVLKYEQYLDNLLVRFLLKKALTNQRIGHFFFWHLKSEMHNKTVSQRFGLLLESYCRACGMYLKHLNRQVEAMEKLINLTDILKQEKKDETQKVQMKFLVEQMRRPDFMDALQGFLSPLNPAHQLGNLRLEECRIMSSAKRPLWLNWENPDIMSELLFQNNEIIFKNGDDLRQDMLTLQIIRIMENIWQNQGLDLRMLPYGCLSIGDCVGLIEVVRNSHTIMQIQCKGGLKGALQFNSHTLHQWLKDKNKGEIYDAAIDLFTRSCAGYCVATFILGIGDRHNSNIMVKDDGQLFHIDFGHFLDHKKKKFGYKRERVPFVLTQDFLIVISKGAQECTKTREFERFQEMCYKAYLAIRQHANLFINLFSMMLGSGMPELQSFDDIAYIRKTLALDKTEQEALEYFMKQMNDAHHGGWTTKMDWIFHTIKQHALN
T2 sequence (P27986 whole entry partner, canonical isoform): as the sequence (P27986 whole entry partner, canonical isoform) above

SMILES | IC50 (PI3Kdelta) | Selectivity versus PI3Kalpha (PI3Kalpha)
CCn1c(-c2cnn(-c3ccccc3)c2)nc2c(NC3CCc4nnc(C5CC5)n4C3)ncnc21 (racemic) [Compound 1-10, (S and R)-N-(3-cyclopropyl-5,6,7,8-tetrahydro[1,2,4]triazolo[4,3-a]pyridin-6-yl)-9-ethyl-8-(1-phenyl-1H-pyrazol-4-yl)-9H-purin-6-amine] | < 1 nM | >10
CCn1c(-c2ccc(C(F)(F)F)nc2)nc2c(NC3CCc4nnc(C5CC5)n4C3)ncnc21 (racemic) [Compound 1-11, (S and R)-N-(3-cyclopropyl-5,6,7,8-tetrahydro[1,2,4]triazolo[4,3-a]pyridin-6-yl)-9-ethyl-8-[6-(trifluoromethyl)pyridin-3-yl]-9H-purin-6-amine] | 4.1 nM | >10
CCn1c(-c2ccc(OC)nc2)nc2c(NC3CCc4nnc(C5CC5)n4C3)ncnc21 (racemic) [Compound 1-12, (S and R)-N-(3-cyclopropyl-5,6,7,8-tetrahydro[1,2,4]triazolo[4,3-a]pyridin-6-yl)-9-ethyl-8-(6-methoxypyridin-3-yl)-9H-purin-6-amine] | 1.2 nM | >10
CCn1c(-c2cnc(OC)c(F)c2)nc2c(NC3CCc4nnc(C5CC5)n4C3)ncnc21 (racemic) [Compound 1-13, (S and R)-N-(3-cyclopropyl-5,6,7,8-tetrahydro[1,2,4]triazolo[4,3-a]pyridin-6-yl)-9-ethyl-8-(5-fluoro-6-methoxypyridin-3-yl)-9H-purin-6-amine] | 1.1 nM | >10
CCn1c(-c2ccc(OC(F)F)nc2)nc2c(NC3CCc4nnc(C5CC5)n4C3)ncnc21 (racemic) [Compound 1-14, (S and R)-N-(3-cyclopropyl-5,6,7,8-tetrahydro[1,2,4]triazolo[4,3-a]pyridin-6-yl)-8-[6-(difluoromethoxy)pyridin-3-yl]-9-ethyl-9H-purin-6-amine] | 2.1 nM | >10
CCn1c(-c2cnc(OC)c(C)c2)nc2c(NC3CCc4nnc(C5CC5)n4C3)ncnc21 (racemic) [Compound 1-15, (S and R)-N-(3-cyclopropyl-5,6,7,8-tetrahydro[1,2,4]triazolo[4,3-a]pyridin-6-yl)-9-ethyl-8-(6-methoxy-5-methylpyridin-3-yl)-9H-purin-6-amine] | < 1 nM | >10
CCn1c(-c2ccc(OC(F)(F)F)cc2)nc2c(NC3CCc4nnc(C5CC5)n4C3)ncnc21 (racemic) [Compound 1-16, (S and R)-N-(3-cyclopropyl-5,6,7,8-tetrahydro[1,2,4]triazolo[4,3-a]pyridin-6-yl)-9-ethyl-8-[4-(trifluoromethoxy)phenyl]-9H-purin-6-amine] | 3.9 nM | >10
CCn1ncc(-c2nc3c(NC4CCc5nnc(C6CC6)n5C4)ncnc3n2CC)c1C (racemic) [Compound 1-17, (S and R)-N-(3-cyclopropyl-5,6,7,8-tetrahydro[1,2,4]triazolo[4,3-a]pyridin-6-yl)-9-ethyl-8-(1-ethyl-5-methyl-1H-pyrazol-4-yl)-9H-purin-6-amine] | < 1 nM | >10
CCn1c(C(=O)NCC(F)(F)F)nc2c(NC3CCc4nnc(C(C)C)n4C3)ncnc21 (racemic) [Compound 1-37, (S and R)-9-ethyl-6-{[3-(1-methylethyl)-5,6,7,8-tetrahydro[1,2,4]triazolo[4,3-a]pyridin-6-yl]amino}-N-(2,2,2-trifluoroethyl)-9H-purine-8-carboxamide] | 12 nM | >10
CCn1c(-c2cnc(C)nc2)nc2c(NC3CCc4c(c(C5CC5)nn4C(=O)OC(C)(C)C)C3)ncnc21 (racemic) [Compound 2-1, (S and R)-tert-butyl 3-cyclopropyl-5-{[9-ethyl-8-(2-methylpyrimidin-5-yl)-9H-purin-6-yl]amino}-4,5,6,7-tetrahydro-1H-indazole-1-carboxylate] | < 1 nM | >10
CCn1c(-c2cnc(C)nc2)nc2c(NC3CCc4c(c(C(C)C)nn4CCN(C)C)C3)ncnc21 (racemic) [Compound 2-3, (S and R)-N-{1-[2-(dimethylamino)ethyl]-3-(1-methylehyl)-4,5,6,7-tetrahydro-1H-indazol-5-yl}-9-ethyl-8-(2-methylpyrimidin-5-yl)-9H-purin-6-amine] | 7.4 nM | >10
CCn1c(C(F)F)nc2c(NC3CCc4[nH]nc(C(C)C)c4C3)ncnc21 (racemic) [Compound 2-9, (S and R)-8-(difluoromethyl)-9-ethyl-N-[3-(1-methylethyl)-4,5,6,7-tetrahydro-1H-indazol-5-yl]-9H-purin-6-amine] | 60 nM | >10
CCn1c(-c2cnc(C)nc2)nc2c(NC3CCc4c(c(C(C)C)nn4C(C)=O)C3)ncnc21 (racemic) [Compound 2-12, (S and R)-N-[1-acetyl-3-(1-methylethyl)-4,5,6,7-tetrahydro-1H-indazol-5-yl]-9-ethyl-8-(2-methylpyrimidin-5-yl)-9H-purin-6-amine] | 15 nM | >10
CCn1c(-c2cnc(C)nc2)nc2c(NC3CCc4c(c(C(C)C)nn4C(=O)c4ccccc4)C3)ncnc21 (racemic) [Compound 2-13, (S and R)-9-ethyl-N-[3-(1-methylethyl)-1-(phenylcarbonyl)-4,5,6,7-tetrahydro-1H-indazol-5-yl]-8-(2-methylpyrimidin-5-yl)-9H-purin-6-amine] | 30 nM | >10
CCn1c(-c2cnc(C)nc2)nc2c(NC3CCc4c(c(C(C)C)nn4C(=O)CN(C)C)C3)ncnc21 (racemic) [Compound 2-14, (S and R)-N-{1-[(dimethylamino)acetyl]-3-(1-methylethyl)-4,5,6,7-tetrahydro-1H-indazol-5-yl}-9-ethyl-8-(2-methylpyrimidin-5-yl)-9H-purin-6-amine] | 20 nM | >10
CCn1c(-c2cnc(C)nc2)nc2c(NC3CCc4c(c(C(C)C)nn4C(=O)CC(C)(C)C)C3)ncnc21 (racemic) [Compound 2-15, (S and R)-N-[1-(3,3-dimethylbutanoyl)-3-(1-methylethyl)-4,5,6,7-tetrahydro-1H-indazol-5-yl]-9-ethyl-8-(2-methylpyrimidin-5-yl)-9H-purin-6-amine] | 78 nM | >10
CCn1c(-c2cnc(C)nc2)nc2c(NC3CCc4c(c(C(C)C)nn4C(=O)OC(C)(C)C)C3)ncnc21 (racemic) [Compound 2-16, (S and R)-tert-butyl 5-{[9-ethyl-8-(2-methylpyrirnidin-5-yl)-9H-purin-6-yl]amino}-3-(1-methylethyl)-4,5,6,7-tetrahydro-1H-indazole-1-carboxylate] | < 1 nM | >10
CCOC(=O)n1nc(C(C)C)c2c1CCC(Nc1ncnc3c1nc(-c1cnc(C)nc1)n3CC)C2 (racemic) [Compound 2-17, (S and R)-ethyl 5-{[9-ethyl-8-(2-methylpyrimidin-5-yl)-9H-purin-6-yl]amino}-3-(1-methylethyl)-4,5,6,7-tetrahydro-1H-indazole-1-carboxylate] | 2.3 nM | >10
